Results taken from patent US20190169562A1, “SCREENING OF IMMUNO-MODULATORY THERAPIES” (zPredicta, Inc., priority 2016, published 2019).

Tested on: malignant plasma cells
Test: bone marrow aspirates from multiple myeloma patients cultured in r-Bone and treated with pomalidomide
Assay type: cell-based, human
Conditions: patient bone marrow (n=10) in r-Bone, FIG. 4
Experimental: This example tested bone marrow aspirated from patients with multiple myeloma (n=10) were cultured in r-Bone system and treated with pomalidomide.

Nc1cccc2c1C(=O)N(C1CCC(=O)NC1=O)C2=O (stereo not shown) [pomalidomide, Pomalidomide]
elimination of malignant plasma cells: eliminated malignant plasma cells in a dose dependent manner
